According to patent US11584765B2 (priority 2017, dated 2023):

System: C57BL/6 mice
Assay: animal or person
Type: in vivo
Conditions: Mus musculus, sc, 0.5 h, s.c. administration, 30 min, 55° C. water, read-out: ED50 (mg/kg) at 30 min on C57BL/6 mice in Warm-water Tail-flick Test

For `CC(=O)Nc1ccc(CN2CCC(CCc3ccccc3)(COC(F)F)CC2)cc1` [Compound 107, N-(4-((4-((difluoro-methoxy)methyl)-4-phenethylpiperidin-1-yl)methyl)phenyl)acetamide], the ED50 was over 10 mg/kg.

Molecule `CC(=O)Nc1ccc(CN2CCC(CCc3ccccc3)(c3ccco3)C2)cc1` (stereo not shown) [Compound 189, N-(4-((3-(furan-2-yl)-3-phenethylpyrrolidin-1-yl)methyl)phenyl)acetamide] has an ED50 of over 10 mg/kg.

Molecule `C[C@@H](O)[C@]1(CCc2cccs2)CCN(Cc2cccnc2)C1` (single isomer, unassigned) [Compound 424] has an ED50 of under 10 mg/kg.

Molecule `CC(=O)Nc1ccc(CN2CCC(CCc3ccccc3)(c3ccccn3)C2)cc1` (stereo not shown) [Compound 30, N-(4-((3-phenethyl-3-(pyridin-2-yl)pyrrolidin-1-yl)methyl)phenyl)acetamide] has an ED50 of over 10 mg/kg.

Molecule `CCOCC1(CCc2cccs2)CCN(Cc2ccc(NC(C)=O)cc2)C1` (stereo in doubt) [Compound 325, (R)-N-(4-((3-(ethoxymethyl)-3-(2-(thiophen-2-yl)ethyl)pyrrolidin-1-yl)methyl)phenyl)acetamide] has an ED50 of under 10 mg/kg.

Molecule `CCOC[C@@]1(CCc2ccccc2)CCN(C(C)c2ccc(C)nc2)C1.Cl` (stereo partly drawn) [Compound 303, 5-(1-((S)-3-(ethoxymethyl)-3-phenethylpyrrolidin-1-yl)ethyl)-2-methylpyridine HCl] has an ED50 of under 10 mg/kg.

For `CCOC[C@@]1(CCc2cc(C)cs2)CCN(Cc2cccnc2)C1.Cl` [Compound 337], the ED50 was under 10 mg/kg.

With `CC(=O)Nc1ccc(CN2CCC(/C=C/c3ccccc3)(c3ccncc3)CC2)cc1` [Compound 40, (E)-N-(4-((4-(pyridin-4-yl)-4-styrylpiperidin-1-yl)methyl)phenyl)acetamide] the ED50 was over 10 mg/kg.

Molecule `CCOC[C@@]1(CCc2nc(C)c(C)s2)CCN(C(C)(C)c2ccc(C)nc2)C1.Cl` [Compound 450, (S)-2-(2-(3-(ethoxymethyl)-1-(2-(6-methylpyridin-3-yl)propan-2-yl)pyrrolidin-3-yl)ethyl)-4,5-dimethylthiazole HCl] has an ED50 of under 10 mg/kg.

With `CC(=O)Nc1ccc(CN2CCC(CCc3ccccc3)(C3CCO3)C2)cc1` (stereo not shown) [Compound 120, N-(4-((3-(oxetan-2-yl)-3-phenethylpyrrolidin-1-yl)methyl)phenyl)acetamide] the ED50 was under 10 mg/kg.

`CCOCC1(CCc2cc(C)cs2)CCN(Cc2cnn(C)c2)CC1` [Compound 267, 4-(ethoxymethyl)-1-((1-methyl-1H-pyrazol-4-yl)methyl)-4-(2-(4-methylthiophen-2-yl)ethyl)piperidine] was tested, and the ED50 was under 10 mg/kg.

With `CC(=O)NCCCCN1CCC(CCc2ccccc2)(c2ccccn2)CC1` [Compound 35, N-(4-(4-phenethyl-4-(pyridin-2-yl)piperidin-1-yl)butyl)acetamide] the ED50 was over 10 mg/kg.

In the case of `CCOCC1(CCc2ccccc2)CCN(Cc2cnn(C)c2)C1` (stereo not shown) [Compound 217, 4-((3-(ethoxymethyl)-3-phenethylpyrrolidin-1-yl)methyl)-1-methyl-1H-pyrazole], the ED50 is reported as under 10 mg/kg.

For `CCOCC1(CCc2ccccc2)CCN(Cc2ccc(CC(C)=O)cc2)CC1` [Compound 131, 1-(4-((4-(ethoxymethyl)-4-phenethylpiperidin-1-yl)methyl)phenyl)propan-2-one], the ED50 was over 10 mg/kg.

`COc1cncc(CN2CCC(CCc3ccccc3)(C3CCCO3)C2)c1` (stereo not shown) [Compound 242, 3-methoxy-5-((3-phenethyl-3-(tetrahydrofuran-2-yl)pyrrolidin-1-yl)methyl)pyridine] gave an ED50 of over 10 mg/kg.

`CC(=O)Nc1ccc(CN2CCC(CCc3ccccc3)(CN(C)C)CC2)cc1` [Compound 56, N-(4-((4-((dimethylamino)methyl)-4-phenethylpiperidin-1-yl)methyl)phenyl)acetamide] gave an ED50 of over 10 mg/kg.

Work on `CCOCC1(CCc2ccccc2)CCN(C(CC)(CC)c2ccc(C)nc2)CC1` [Compound 399, 5-(3-(4-(ethoxymethyl)-4-phenethylpiperidin-1-yl)pentan-3-yl)-2-methylpyridine] yielded an ED50 of over 10 mg/kg.

`CC(=O)Nc1ccc(CN2CCC(CCc3cccs3)(C3CCCO3)CC2)cc1` (stereo not shown) [Compound 172, N-(4-((4-(tetrahydrofuran-2-yl)-4-(2-(thiophen-2-yl)ethyl)piperidin-1-yl)methyl)phenyl)acetamide] gave an ED50 of under 10 mg/kg.

`CCOC[C@@]1(CCc2ccccn2)CCN(Cc2cccnc2)C1` [Compound 420] showed an ED50 of under 10 mg/kg.

For `CCOCC1(CCc2ccccn2)CCN(Cc2ccc(NC(C)=O)cc2)CC1` [Compound 149, N-(4-((4-(ethoxymethyl)-4-(2-(pyridin-2-yl)ethyl)piperidin-1-yl)methyl)phenyl)acetamide], the ED50 was over 10 mg/kg.

Work on `CCOC[C@@]1(CCc2ccsc2)CCN(Cc2cnn(C)c2)C1.Cl` [Compound 384, (S)-4-((3-(ethoxymethyl)-3-(2-(thiophen-3-yl)ethyl)pyrrolidin-1-yl)methyl)-1-methyl-1H-pyrazole HCl] yielded an ED50 of under 10 mg/kg.

Work on `CCOCC1(CCc2ccccc2)CCN(Cc2ccc(-c3cnc[nH]3)cc2)CC1` [Compound 141, 1-(4-(1H-imidazol-5-yl)benzyl)-4-(ethoxymethyl)-4-phenethylpiperidine] yielded an ED50 of over 10 mg/kg.

Work on `CCOCC1(CCc2cccs2)CN(Cc2ccc(C)nc2)C1` [Compound 429, 5-((3-(ethoxymethyl)-3-(2-(thiophen-2-yl)ethyl)azetidin-1-yl)methyl)-2-methylpyridine] yielded an ED50 of under 10 mg/kg.

Molecule `CCOCC1(CCc2cc(C)sc2C)CCN(Cc2cnn(C)c2)CC1` [Compound 281, 4-(2-(2,5-dimethylthiophen-3-yl)ethyl)-4-(ethoxymethyl)-1-((1-methyl-1H-pyrazol-4-yl)methyl)piperidine] has an ED50 of over 10 mg/kg.

With `CCOC[C@@]1(CCc2cccs2)CCN(C(C)(C)c2cnn(C)c2)C1.Cl` [Compound 386, (S)-4-(2-(3-(ethoxymethyl)-3-(2-(thiophen-2-yl)ethyl)pyrrolidin-1-yl)propan-2-yl)-1-methyl-1H-pyrazole HCl] the ED50 was under 10 mg/kg.

In the case of `CC(=O)Nc1ccc(CN2CCC(CCc3ccsc3)(C3CCCO3)CC2)cc1` (stereo not shown) [Compound 186, N-(4-((4-(tetrahydrofuran-2-yl)-4-(2-(thiophen-3-yl)ethyl)piperidin-1-yl)methyl)phenyl)acetamide], the ED50 is reported as over 10 mg/kg.

With `c1ccc(CCC2(C3CCCO3)CCN(Cc3cnccn3)C2)cc1` (stereo not shown) [Compound 238, 2-((3-phenethyl-3-(tetrahydrofuran-2-yl)pyrrolidin-1-yl)methyl)pyrazine] the ED50 was over 10 mg/kg.

`CCC(=O)Nc1ccc(CN2CCC(CCc3ccccc3)(c3ccccn3)CC2)cc1` [Compound 19, N-(4-((4-phenethyl-4-(pyridin-2-yl)piperidin-1-yl)methyl)phenyl)pro-pionamide] was tested, and the ED50 was over 10 mg/kg.

`CCOC[C@@]1(CCc2ccc(C)s2)CCN(Cc2cnn(C)c2)C1` [Compound 407, (S)-4-((3-(ethoxymethyl)-3-(2-(5-methylthiophen-2-yl)ethyl)pyrrolidin-1-yl)methyl)-1-methyl-1H-pyrazole] gave an ED50 of under 10 mg/kg.

`CCOCC1(CCc2ccccc2)CCN(Cc2ccc3c(c2)CC(=O)N3)CC1` [Compound 109, 5-((4-(ethoxymethyl)-4-phenethylpiperidin-1-yl)methyl)indolin-2-one] was tested, and the ED50 was over 10 mg/kg.

`CCOC[C@@]1(CCc2ccc(F)cn2)CCN(C2(c3cnc4c(c3)CCCC4)CC2)C1` [Compound 398, (S)-3-(1-(3-(ethoxymethyl)-3-(2-(5-fluoropyridin-2-yl)ethyl)pyrrolidin-1-yl)cyclopropyl)-5,6,7,8-tetrahydroquinoline] gave an ED50 of under 10 mg/kg.
